Test results: patent US20250257034A1, “INDOLE DERIVATIVES AS SEROTONERGIC AGENTS USEFUL FOR THE TREATMENT OF DISORDERS RELATED THERETO” (priority 2023, published 2025)
Read-outs that look alike come from different tables or passages of the source.

Legend:
[1] = Rat liver microsomes stability; assay type: in vitro ADME; conditions: for half-life at 2 μM / CLint scaled at 2 μM / microsomal CLint at 2 μM: male; for half-life at 2 μM / microsomal CLint at 2 μM: 2 μM compound; for CLint scaled at 2 μM: read-out: Scaled-up CLint; for microsomal CLint at 2 μM: rat, read-out: CLint (μL/min/mg protein)
Procedure: The objective of this study was to estimate in vitro metabolic stability of exemplary compounds of Formula (I) or a pharmaceutically acceptable salt, solvate, and/or prodrug thereof in pooled human, male rat, and male mouse liver microsomes. The concentrations of compounds in reaction systems were evaluated by LC-MS/MS for estimating the stability in pooled human, male rat, and male mouse liver microsomes. The in vitro intrinsic clearances of test compounds were determined as well.
A master solution in the “Incubation Plate” containing phosphate buffer, ultra-pure H2O, MgCl2 solution and liver microsomes was made according to Table 33. The mixture was pre-warmed at 37° C. water bath for 5 minutes.
40 μL of 10 mM nicotinamide adenine dinucleotide phosphate (NADPH) solution was added to each well. The final concentration of NADPH was 1 mM. The negative control samples were prepared by replacing NADPH with 40 μL of ultra-pure H2O. Samples were prepared in duplicate. Negative controls were prepared in singlet.
The reaction was started with the addition of 4 μL of 200 μM exemplary test compounds of the disclosure or control compounds to each master solution to get the final concentration of 2 μM. This study was performed in duplicate.
Aliquots of 50 μL were taken from the reaction solution at 0, 15, 30, 45, and 60 minutes. The reaction solutions were stopped by the addition of 4 volumes of cold methanol with IS (100 nM alprazolam, 200 nM imipramine, 200 nM labet alol and 2 μM ketoprofen). Samples were centrifuged at 3,220 g for 40 minutes. Aliquot of 90 μL of the supernatant was mixed with 90 μL of ultra-pure H2O and then was used for LC-MS/MS analysis.
LC/MS analysis was performed for all samples from this study using a Shimadzu liquid chromatograph separation system equipped with degasser DGU-20A5R; solvent delivery unit LC-30AD; system controller SIL-30AC; column oven CTO-30A; CTC Analytics HTC PAL System. Mass spectrometric analysis was performed using a Triple Quad™ 5500 instrument.
All calculations were carried out using Microsoft Excel. Peak area ratios of test compound to internal standard (listed in the below table) were determined from extracted ion chromatograms.
All calculations were carried out using Microsoft Excel. Peak areas were determined from extracted ion chromatograms. The slope value, k, was determined by linear regression of the natural logarithm of the remaining percentage of the parent drug vs. incubation time curve.
The in vitro half-life (in vitro t1/2) was determined from the slope value:
Conversion of the in vitro t1/2(min) into the in vitro intrinsic clearance (in vitro CLint, in μL/min/mg proteins) was done using the following equation (mean of duplicate determinations): […]
A master solution in the “Incubation Plate” containing phosphate buffer, ultra-pure H2O, MgCl2 solution and liver microsomes was made according to Table 63. The mixture was pre-warmed at 37° C. water bath for 5 minutes.
40 μL of 10 mM NADPH solution was added to each well. The final concentration of NADPH was 1 mM. The negative control samples were prepared by replacing NADPH with 40 μL of ultra-pure H2O. Samples were prepared in duplicate. Negative controls were prepared in singlet.
Conversion of the in vitro t1/2(min) into the in vitro intrinsic clearance (in vitro C Lt, in μL/min/mg proteins) was done using the following equation (mean of duplicate determinations): […]

[2] = target: T1, human 5-HT1A receptor (Homo sapiens, UniProt P08908); assay: Human 5-HT1A radioligand binding assay ([3H]-8-Hydroxy-DPAT); parameters: expressed in transfected cells; host or cells: HTR1A&Gα15-CHO
T1 sequence (P08908 1-422): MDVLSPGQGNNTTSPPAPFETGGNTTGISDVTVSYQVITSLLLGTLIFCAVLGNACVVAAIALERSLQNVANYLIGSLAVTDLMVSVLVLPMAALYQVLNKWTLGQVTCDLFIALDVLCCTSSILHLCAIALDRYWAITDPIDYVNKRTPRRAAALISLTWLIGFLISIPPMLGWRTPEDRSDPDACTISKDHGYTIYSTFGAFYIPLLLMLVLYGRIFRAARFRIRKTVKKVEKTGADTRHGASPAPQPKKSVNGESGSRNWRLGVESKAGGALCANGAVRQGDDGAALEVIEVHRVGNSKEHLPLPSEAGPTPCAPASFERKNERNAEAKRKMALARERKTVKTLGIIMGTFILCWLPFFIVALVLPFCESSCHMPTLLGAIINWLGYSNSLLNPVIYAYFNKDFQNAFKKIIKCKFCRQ
Procedure: The objective of this study was to evaluate the binding properties of test compounds on 5-hydroxytryptamine receptor 1A (5-HT1A).
1. The assay buffer was prepared following Table 21 below.
2. 8 doses of reference and test compounds were prepared starting from 10 mM stock solution as required by 5-fold serial dilutions with 100% (v/v) DMSO.
3. UniFilter-96 GF/B plate was pretreated: • i. 50 μl/well of 0.5% (v/v) PEI was added to UniFilter-96 G F/B plates. The plates were sealed and incubated at 4° C. for 3 hrs. • ii. After incubation, the plates were washed 3 times with ice-cold wash buffer (50 mM Tris, pH7.4).
4. Assay plate was prepared: • i. Cell membrane was diluted with assay buffer and 100 μl/well was added to 96 round well plates to reach a concentration of 20 μg/well. • ii. 8 concentrations of reference or test compounds were prepared and 50 μl/well was added to 96 round deep well plates. • iii. [3H]-8-Hydroxy-DPAT was diluted with assay buffer to 2 nM (4×final concentration) and 50 μl/well was added to 96 round well plates.
5. The plate was centrifuged at 1000 rpm for 30 secs and then agitated at 600 rpm, R.T. for 5 min.
6. The plates were sealed, and the plate was incubated at 27° C. for 90 min.
7. The incubation was stopped by vacuum filtration onto GF/B filter plates followed by 4 times washing with ice-cold wash buffer (50 mM Tris, pH7.4).
9. The filter plates were sealed and 40 μl/well of scintillation cocktail was added.
10. The plate was read by using a Microbeta^2 microplate counter.
1. For reference and test compounds, the results were expressed as % Inhibition, using the normalization equation: N=100-100x(U-C2)/(C1-C2), where U is the unknown value, C1 is the average of high controls, and C2 is the average of low controls.
2. The IC50 was determined by fitting percentage of inhibition as a […] of compound concentrations with Hill equation using XLfit.
The objective of this study was to evaluate the binding properties of test compounds on 5-hydroxytryptamine receptor 1A (5-HTA).
1. The assay buffer was prepared following Table 50 below.
3. UniFilter-96 G FIB plate was pretreated: • i. 50 μl/well of 0.5% (v/v) PEI was added to UniFilter-96 G FIB plates. The plates were sealed and incubated at 4° C. for 3 hrs. • ii. After incubation, the plates were washed 3 times with ice-cold wash buffer (50 mM Tris, pH7.4).
6. The plates were sealed and the plate was incubated at 27° C. for 90 min.

[3] = pooled liver microsomes, rat liver microsomes, 0.5 mg/mL
[4] = pooled liver microsomes, rat liver microsomes
[5] = rat liver microsomes, With Cofactors, 0 min
[6] = rat liver microsomes, With Cofactors, 30 min
[7] = rat liver microsomes, With Cofactors, 60 min
[8] = rat liver microsomes, Without Cofactors, 0 min
[9] = rat liver microsomes, Without Cofactors, 30 min
[10] = rat liver microsomes, Without Cofactors, 60 min
[11] = liver microsomes, Rat liver microsomes, 0.5 mg/mL microsomes, 1 mM NADPH
[12] = Rat liver microsomes, 0.5 mg/mL microsomes, 1 mM NADPH, 37° C

| Structure (SMILES) | half-life at 2 μM [1, 3] [min] | CLint scaled at 2 μM [1, 4] [mL/min/kg] | microsomal CLint at 2 μM [1, 3] [µL/min/mg] | Predicted hepatic CL ([1]; rat liver microsomes) [mL/min/kg] | Remaining Percentage (%) [1, 5] [%] | Remaining Percentage (%) [1, 6] [%] | Remaining Percentage (%) [1, 7] [%] | Remaining Percentage (%) [1, 8] [%] | Remaining Percentage (%) [1, 9] [%] | Remaining Percentage (%) [1, 10] [%] | IC50 [2] [nM] | Predicted hepatic CL ([1]; Rat liver microsomes) [mL/min/kg] | microsomal CLint at 2 μM [1, 11] [µL/min/mg] | half-life at 2 μM [1, 12] [min] | CLint scaled at 2 μM ([1]; Rat liver microsomes) [mL/min/kg] | IC50 ([2]; [3H]-8-Hydroxy-DPAT displacement (Table 51), read-out: h5-HT1A, IC50) [nM] |
| --- | --- | --- | --- | --- | --- | --- | --- | --- | --- | --- | --- | --- | --- | --- | --- | --- |
| CN(C)CCc1c[nH]c2ccc(OCCOC(F)F)cc12 [Compound I-128, 2-(5-(2-(Difluoromethoxy)ethoxy)-1H-indol-3-yl)-N,N-dimethylethan-1-amine] | 7.43 | 334 | 187 | 47.38 | 100.00 | 6.09 | 0.56 | 100.00 | 70.92 | 52.18 | 87 |  |  |  |  |  |
| [2H]C([2H])([2H])N(CCc1c[nH]c2ccc(SC)cc12)C([2H])([2H])[2H] [Compound I-1, N,N-Bis(methyl-d3)-2-(5-(methylthio)-1H-indol-3-yl)ethan-1-amine] |  |  |  |  |  |  |  |  |  |  | 3.9 | >50.17 | > 307 | < 4.51 | > 550 |  |
| CSc1ccc2[nH]cc(CCN(C)C(C)C)c2c1 [Compound I-19, N-Methyl-N-(2-(5-(methylthio)-1H-indol-3-yl)ethyl)propan-2-amine] |  |  |  |  |  |  |  |  |  |  | 17 | 16.73 | 13.4 | 103 | 24 |  |
| COc1ccc2[nH]cc(CCN(C)CCOC(F)F)c2c1 [Compound I-71, 2-(Difluoromethoxy)-N-(2-(5-methoxy-1H-indol-3-yl)ethyl)-N-methylethan-1-amine] | 9.7 | 256 | 143 | 45.41 | 100.00 | 10.63 | 1.37 | 100.00 | 96.79 | 100.64 |  |  |  |  |  | 51 |
| CCN(C)CCc1c[nH]c2ccc(SC)cc12 [Compound I-13, N-Ethyl-N-methyl-2-(5-(methylthio)-1H-indol-3-yl)ethan-1-amine] |  |  |  |  |  |  |  |  |  |  | 2 | 42.35 | 102 | 13.7 | 182 |  |
| CCN(CC)CCc1c[nH]c2ccc(SC)cc12 [Compound I-12, N,N-Diethyl-2-(5-(methylthio)-1H-indol-3-yl)ethan-1-amine] |  |  |  |  |  |  |  |  |  |  | 2 | 30.14 | 37 | 37.4 | 66.4 |  |
| CSc1ccc2[nH]cc(CCN(C(C)C)C(C)C)c2c1 [Compound I-17, N-Isopropyl-N-(2-(5-(methylthio)-1H-indol-3-yl)ethyl)propan-2-amine] |  |  |  |  |  |  |  |  |  |  | 46 | 30.01 | 36.7 | 37.8 | 65.8 |  |
| COc1ccc2[nH]cc(CCN3CC[C@H](OC(F)F)C3)c2c1 [(S) I-67, (S)-3-(2-(3-(Difluoromethoxy)pyrrolidin-1-yl)ethyl)-5-methoxy-1H-indole] | < 4.51 | > 550 | > 307 | >50.17 | 100.00 | 0.00 | 0.00 | 100.00 | 99.06 | 96.86 | 5 |  |  |  |  |  |
| COc1ccc2[nH]cc(CCN3CC[C@@H](OC)C3)c2c1 [(R) I-66, (R)-5-methoxy-3-(2-(3-methoxypyrrolidin-1-yl)ethyl)-1H-indole] | 17.8 | 139 | 77.7 | 39.53 | 100.00 | 22.22 | 9.71 | 100.00 | 102.61 | 100.00 | 22 |  |  |  |  |  |
| CN(CCOC(F)F)CCc1c[nH]c2ccccc12 [Compound I-130, N-(2-(1H-Indol-3-yl)ethyl)-2-(difluoromethoxy)-N-methylethan-1-amine] | < 4.51 | > 550 | > 307 | >50.17 | 100.00 | 0.00 | 0.00 | 100.00 | 105.21 | 103.65 |  |  |  |  |  |  |
